Reference: patent publication US20170333591A9, “ABSORBENT ARTICLE COMPRISING MALODOR REDUCTION COMPOSITIONS” (The Procter & Gamble Company, priority 2014, published 2017)

Test: Log of liquid dish neat product liquid-air partition coefficient
Type: physicochemical
Conditions: not given

SMILES | Comment Code: Log of liquid dish neat product liquid-air partition coefficient
CCCC(=O)OC1CC2CC1C1CC=CC21 (centres unmarked) [Material 484] | K (Log of liquid dish neat product liquid-air partition coefficient greater than or equal to 7)
CC(C)C(=O)OC1CC2CC1C1C=CCC21 (centres unmarked) [Material 487] | K (Log of liquid dish neat product liquid-air partition coefficient greater than or equal to 7)
C=CC1(C)Cc2occ(C)c2CC1C(=C)C (centres unmarked) [Material 488] | K (Log of liquid dish neat product liquid-air partition coefficient greater than or equal to 7)
COc1cc(C)ccc1O [Material 492] | K (Log of liquid dish neat product liquid-air partition coefficient greater than or equal to 7)
CC(C)(O)CCC1CCCCC1 [Material 496] | K (Log of liquid dish neat product liquid-air partition coefficient greater than or equal to 7)
C=CC(C)(C#N)Cc1ccccc1 (centres unmarked) [Material 504] | K (Log of liquid dish neat product liquid-air partition coefficient greater than or equal to 7)
C/C=C\c1ccc(O)c(OC)c1 [Material 528] | K (Log of liquid dish neat product liquid-air partition coefficient greater than or equal to 7)
C/C=C(\C)C(=O)OCC/C=C\CC [Material 536] | K (Log of liquid dish neat product liquid-air partition coefficient greater than or equal to 7)
N#CC=Cc1ccccc1 [Material 549] | K (Log of liquid dish neat product liquid-air partition coefficient greater than or equal to 7)
O=C/C=C/c1ccccc1 [Material 554] | K (Log of liquid dish neat product liquid-air partition coefficient greater than or equal to 7)
N#C/C=C/c1ccccc1 [Material 556] | K (Log of liquid dish neat product liquid-air partition coefficient greater than or equal to 7)
Cc1cc(O)cc(C)c1Cl [Material 557] | K (Log of liquid dish neat product liquid-air partition coefficient greater than or equal to 7)
COC1(C)CCC23CC1C(C)(C)C2CCC3C (centres unmarked) [Material 565] | K (Log of liquid dish neat product liquid-air partition coefficient greater than or equal to 7)
CC1CCC2C(C)(C)C3CC12CCC3(C)OC=O (centres unmarked) [Material 566] | K (Log of liquid dish neat product liquid-air partition coefficient greater than or equal to 7)
CC(=O)O[C@]1(C)CC[C@@]23C[C@@H]1C(C)(C)[C@@H]2CC[C@H]3C [Material 567] | K (Log of liquid dish neat product liquid-air partition coefficient greater than or equal to 7)
C[C@@H]1CC[C@H]2C(C)(C)[C@H]3C[C@@]12CC[C@@]3(C)O [Material 569] | K (Log of liquid dish neat product liquid-air partition coefficient greater than or equal to 7)
CC1=CCC(C23CCCC(C)(C2)OC3)C1(C)C (centres unmarked) [Material 570] | K (Log of liquid dish neat product liquid-air partition coefficient greater than or equal to 7)
CC(=O)OC12CCCC(C)(CCC3C1CC3(C)C)C2 (centres unmarked) [Material 573] | K (Log of liquid dish neat product liquid-air partition coefficient greater than or equal to 7)

Same assay, conditions: code letter within the Comment Code cell

SMILES | Log of liquid dish neat product liquid-air partition coefficient (Comment Code K/L)
CCCCCCCCCCOC(=O)CC [Material 471] | K (Log of liquid dish neat product liquid-air partition coefficient greater than or equal to 7)
CCCCCCCCCC(OCC)OCC [Material 473] | K (Log of liquid dish neat product liquid-air partition coefficient greater than or equal to 7)
OC1CCC2CCCCC2C1 (centres unmarked) [Material 474] | K (Log of liquid dish neat product liquid-air partition coefficient greater than or equal to 7)
CC=CC(=O)OC(C)C1CCCCC1 (centres unmarked) [Material 475] | K (Log of liquid dish neat product liquid-air partition coefficient greater than or equal to 7)
CC(C=O)Cc1ccc(C(C)C)cc1 (centres unmarked) [Material 478] | K (Log of liquid dish neat product liquid-air partition coefficient greater than or equal to 7)
O=C1CCCCCCCCCCCCCC1 [Material 480] | K (Log of liquid dish neat product liquid-air partition coefficient greater than or equal to 7)
CCCC(=O)OC1CC2CC1C1CC=CC21 (centres unmarked) [Material 484] | K (Log of liquid dish neat product liquid-air partition coefficient greater than or equal to 7)
CC1(C)CCCC2=C1CC(C=O)CC2 (centres unmarked) [Material 486] | K (Log of liquid dish neat product liquid-air partition coefficient greater than or equal to 7)
CC(C)C(=O)OC1CC2CC1C1C=CCC21 (centres unmarked) [Material 487] | K (Log of liquid dish neat product liquid-air partition coefficient greater than or equal to 7)
C=CC1(C)Cc2occ(C)c2CC1C(=C)C (centres unmarked) [Material 488] | K (Log of liquid dish neat product liquid-air partition coefficient greater than or equal to 7)
CC(C)c1ccc(CO)cc1 [Material 491] | K (Log of liquid dish neat product liquid-air partition coefficient greater than or equal to 7)
c1ccc2occc2c1 [Material 493] | K (Log of liquid dish neat product liquid-air partition coefficient greater than or equal to 7)
c1ccc(CCCc2ccccn2)cc1 [Material 497] | K (Log of liquid dish neat product liquid-air partition coefficient greater than or equal to 7)
CCCCCCCCCCCC#N [Material 498] | K (Log of liquid dish neat product liquid-air partition coefficient greater than or equal to 7)
CC(=CC#N)CCc1ccccc1 [Material 505] | K (Log of liquid dish neat product liquid-air partition coefficient greater than or equal to 7)
CC(C)=CCCC(C)=CC1OCC(C)O1 (centres unmarked) [Material 519] | K (Log of liquid dish neat product liquid-air partition coefficient greater than or equal to 7)
COC(C=C(C)CCC=C(C)C)OC [Material 520] | K (Log of liquid dish neat product liquid-air partition coefficient greater than or equal to 7)
CCOC(C=C(C)CCC=C(C)C)OCC [Material 521] | K (Log of liquid dish neat product liquid-air partition coefficient greater than or equal to 7)
C=C(C)C1CC=C(C)C(O)C1 (centres unmarked) [Material 531] | K (Log of liquid dish neat product liquid-air partition coefficient greater than or equal to 7)
CC/C=C\CCOC(=O)C/C=C\CC [Material 534] | K (Log of liquid dish neat product liquid-air partition coefficient greater than or equal to 7)
CC/C=C\CCOC(=O)c1ccccc1 [Material 541] | K (Log of liquid dish neat product liquid-air partition coefficient greater than or equal to 7)
CC/C=C\C/C=C\CCO [Material 546] | K (Log of liquid dish neat product liquid-air partition coefficient greater than or equal to 7)
CCC(=O)OCC=Cc1ccccc1 [Material 548] | K (Log of liquid dish neat product liquid-air partition coefficient greater than or equal to 7)
CC(C)C(=O)OCC=Cc1ccccc1 [Material 550] | K (Log of liquid dish neat product liquid-air partition coefficient greater than or equal to 7)
O=COCC=Cc1ccccc1 [Material 551] | K (Log of liquid dish neat product liquid-air partition coefficient greater than or equal to 7)
CC(=O)OCC=Cc1ccccc1 [Material 553] | K (Log of liquid dish neat product liquid-air partition coefficient greater than or equal to 7)
OCC=Cc1ccccc1 [Material 555] | K (Log of liquid dish neat product liquid-air partition coefficient greater than or equal to 7)
C=CCCC(=O)/C=C/C1C(C)=CCCC1(C)C (centres unmarked) [Material 559] | K (Log of liquid dish neat product liquid-air partition coefficient greater than or equal to 7)
CC1=C(CCC(C)C=O)C(C)(C)CCC1 (centres unmarked) [Material 560] | K (Log of liquid dish neat product liquid-air partition coefficient greater than or equal to 7)

Same assay, conditions: code letters K/L of the Comment Code

SMILES | Log of liquid dish neat product liquid-air partition coefficient (Comment Code)
CC(=O)c1cc(C(C)(C)C)cc2c1CCC2(C)C [Material 563] | K (Log of liquid dish neat product liquid-air partition coefficient greater than or equal to 7)
COC1(C)CCC23CC1C(C)(C)C2CCC3C (centres unmarked) [Material 565] | K (Log of liquid dish neat product liquid-air partition coefficient greater than or equal to 7)
CC1CCC2C(C)(C)C3CC12CCC3(C)OC=O (centres unmarked) [Material 566] | K (Log of liquid dish neat product liquid-air partition coefficient greater than or equal to 7)
CC(=O)O[C@]1(C)CC[C@@]23C[C@@H]1C(C)(C)[C@@H]2CC[C@H]3C [Material 567] | K (Log of liquid dish neat product liquid-air partition coefficient greater than or equal to 7)
CC1=CCCC2(C)OC2CCC(C)=CCC1 (centres unmarked) [Material 568] | K (Log of liquid dish neat product liquid-air partition coefficient greater than or equal to 7)
C[C@@H]1CC[C@H]2C(C)(C)[C@H]3C[C@@]12CC[C@@]3(C)O [Material 569] | K (Log of liquid dish neat product liquid-air partition coefficient greater than or equal to 7)
CC1=CCC(C23CCCC(C)(C2)OC3)C1(C)C (centres unmarked) [Material 570] | K (Log of liquid dish neat product liquid-air partition coefficient greater than or equal to 7)
CC1C(C)(C)C2=C(C(=O)CCC2)C1(C)C (centres unmarked) [Material 572] | K (Log of liquid dish neat product liquid-air partition coefficient greater than or equal to 7)
CC(=O)OC12CCCC(C)(CCC3C1CC3(C)C)C2 (centres unmarked) [Material 573] | K (Log of liquid dish neat product liquid-air partition coefficient greater than or equal to 7)
